One data set concerns apoE−/− mice. The source says: Lentivector Expression System was purchased from System Biosciences. The microRNA expression vectors pCDH-CMV-MCS-EF1- GreenPuro vector (System Biosciences, SBI) contain a CMV-driven EGFP reporter. The full length sequence of microRNA-195 was amplified from genomic DNA by polymerase chain reaction (PCR). Primer pairs for microRNA expression vectors were microRNA-195 forward: 5′-[…]-3′ (SEQ ID NO: 3), and reverse: 5′-[…]-3′ (SEQ ID NO: 4). The PCR products were inserted to the microRNA expression vectors. The clones carrying microRNA-195 was named pCDH-miR-195. The pCDH vector was used as control.
The miRNA expression vectors (pCDH-miR-195 and pCDH mock vector) and Lentivirus Package plasmid mix (System Biosciences, SBI) were cotransfected into 293TN cells with PureFection™ Transfection Reagent (System Biosciences; Mountain View, Calif., USA), and Lenti-X Concentrator (Clontech, USA) was used for concentration. Infectious titers were determined by counting GFP positive-293T cells using a fluorescence microscope.
0.1 ml PBS with 10^7 IFU Lentivirus containing pCDH-miR-195 or a control vector was injected to the tail veil of the apoE−/− mice that were under a high fat diet. The injection was repeated once a week for a total of 12 weeks. Changes in body weight of the apoE−/− mice treated with Lentivirus containing pCDH-miR-195 (the microRNA-195 treatment group) and the apoE−/− mice treated with Lentivirus containing the control vector (the control group) were recorded every week and are shown in FIG. 7. When the experiment was completed, the mice of the microRNA-195 treatment group and the mice of the control group were sacrificed.
Biochemical indexes, such as blood urea nitrogen (BUN) and creatinine (CRE) for renal function, GOT (AST) and GPT (ALT) for liver function, fasting blood sugar (GLU), total cholesterol (T-CHO), high density lipoprotein (HDL), low density lipoprotein (LDL) and triglyceride (TG) of the blood of mice of the microRNA-195 treatment group and mice of the control group were determined and are shown in Table 2, respectively. Indexes for weight of various organs to body weight (organ weight/body weight) of mice of the microRNA-195 treatment group and the mice of the control group were determined and are shown in Table 3, respectively.

Data set [1] deals with vascular smooth muscle cells (VSMC). Kind of data set: WST-1 cell proliferation assay of VSMC stimulated with ox-LDL. The format is cell-based, human. Conditions: ox-LDL 40 μg/ml, 24 hours. On the procedure:
The experiments were conducted in the primary aortic smooth muscle cells (purchased as cryopreserved tertiary cultures from Cascade Biologics, OR, USA) at passages 4 to 8. The VSMC cells were maintained in an M231 culture medium supplemented with fetal bovine serum (FBS, 5%), human epidermal growth factor (10 ng/ml), human basic fibroblast growth factor (3 ng/ml), insulin ([…]), penicillin (100 units/ml), streptomycin ([…]), and Fungizone ([…]). The cultures were kept at a temperature of 37° C. in an atmosphere of 5% CO2 in air.
The transfection was performed using a siPort NeoFx reagent (Ambion) and VSMC cell proliferation and migration were evaluated 24 hours after the microRNA-195 transfection. In addition, simvastatin was used, a widely used lipid lowering drug and anti-atherosclerosis drug, to test the influence of microRNA-195 levels by simvastatin.
VSMC is an established model for atherosclerosis studies and when atherosclerosis incursion VSMC proliferation increases. A VSMC proliferation rate was used as a surrogate for the development of atherosclerosis, which was assessed by WST-1. By using a 1-3 μL siPort NeoFx (Ambion) reagent, 0-120 nM of microRNA-195 (Pre-miR™ miRNA, hsa-miR-195 (product ID PM10827), Ambion Inc.) was transfected into the VSMC cells while they were incubated with ox-LDL (40 μg/ml) for 24 hours. […] The microplates were then read by a spectrophotometer by measuring the absorbance of a dye with a wavelength of 450 nm and a reference wavelength of 600 nm (Benchmark PLUS Microplate Spectrophotometer, Bio-Rad) and plotted. […]
Cell proliferation of the VSMC was evaluated following incubation in ox-LDL (40 μg/ml) for 24 hours in the presence of microRNA-195 (Pre-miR miRNA, hsa-miR-195 (product ID PM10827), Ambion Inc.) (100 nM), simvastatin (1 nM) or Panax Notoginseng (in a form of water extract with concentration of 1 mg/ml; Chuang Song Zong Pharmaceutical co. Ltd), or in the presence of microRNA-195 (100 nM) with simvastatin (1 nM) or with Panax Notoginseng (in a form of water extract with concentration of 1 mg/ml). […]
Background: Tetrazolium dyes change colour on reduction, which living cells bring about.

For a further data set, the system named is eNOS. The data set is described as follows: Real-time qPCR of eNOS mRNA in HUVECs co-cultured with transfected HASMCs. The data set is classed as cell-based, human. Conditions: co-cultured with microRNA-195-transfected HASMCs. The procedure:
HASMCs were transfected with negative control microRNA or microRNA-195 with or without the presence of oxLDL. MicroRNA-195-transfected HASMCs were co-cultured with HUVEC. Real-time qPCR analysis of mRNA levels for genes surrogating endothelial functions as well as atherosclerosis, such as vascular cell adhesion molecule-1 (VCAM-1), […] (TNF-a) and interleukin-6 (IL-6), and vasodilation gene, endothelial nitric oxide synthase (eNOS), were determined in HUVECs.
(In general: In qPCR the cycle at which signal appears reflects the starting amount.)

The mark [2] stands for this setting: Lentivirus containing pCDH-miR-195, 12 weeks, high fat diet.
The mark [3] stands for this setting: Lentivirus containing pCDH-miR-195 vs control group, from Table 2.
The mark [4] stands for this setting: blood, Lentivirus containing pCDH-miR-195 10^7 IFU tail vein weekly, 12 weeks, high fat diet.

With “microRNA-195: Pre-miR miRNA, hsa-miR-195 (product ID PM10827), Ambion Inc., which mimics precursor for mature human miR-195; mimic 5′-UAGCAGCACAGAAAUAUUGGC-3′ (SEQ ID NO: 5) (chemistry not given here)”, in the data set on apoE−/− mice (setting [2]), the “Heart weight/body weight, average” value was 0.49%; the “Kidney weight/body weight, average” value is reported as 1.20%; the “Liver weight/body weight, average” value stood at 3.35%; the “Lung weight/body weight, average” value is 0.72%. For the same substance, in the data set with apoE−/− mice (setting [2]), the “Spleen weight/body weight, average” value is given as 0.32%. In the data set on apoE−/− mice (setting [3]), this substance had an HDL increase of 77% and a triglyceride decrease of 26%. The “blood sugar level versus placebo treated animals” value in the data set on apoE−/− mice (Lentivirus containing pCDH-miR-195 vs control vector, high-fat diet) is on record as “lower”. The “control of the increase of body weight” value in the data set with apoE−/− mice (Lentivirus containing pCDH-miR-195 vs control vector, high-fat diet, 12 weeks) is given as “better than the placebo”. Also, in the data set on apoE−/− mice (setting [4]), the “BUN (blood urea nitrogen), average” value was 21.5; the “CRE (creatinine), average” value worked out at 0.7; the “GLU (fasting blood sugar), average” value is listed as 166.5; the “GOT (AST), average” value was found to be 118.5. Moreover, in the data set on apoE−/− mice (setting [4]), the “GPT (ALT), average” value is recorded as 28.5; the “HDL (high density lipoprotein), average” value amounted to 11.5; the “T-CHO (total cholesterol), average” value was determined as 711.5; the “TG (triglyceride), average” value was determined as 141. Besides, in data set [1] (30 nM transfected), the “reduction of VSMC cell proliferation” value was 21%. Further, the “reduction of VSMC cell proliferation” value in data set [1] (60 nM transfected) is 29%. In addition, the “reduction of VSMC cell proliferation” value in data set [1] (120 nM transfected) amounted to 45%. Also, the “eNOS mRNA level in HUVECs” value in the data set on eNOS was “increases”.

The record behind these values is patent US20130089601A1, “METHOD FOR TREATING ATHEROSCLEROSIS” (KAOHSIUNG MEDICAL UNIVERSITY, priority 2009, published 2013).
